Reference: PubChem BioAssay AID328 (DTP/NCI, 2004)
“And” between values parts separate entries of the source, which are not always exact repeats. Identical values can stand only once. Toxic doses and inconclusive results are not listed.

System: BDF1 mice, P388 leukemia ip, median survival T/C
Experiment: NCI In Vivo Anticancer Drug Screen. Data for tumor model P388 Leukemia (intraperitoneal) in B6D2F1 (BDF1) mice
Details: endpoint: median survival time, higher = longer survival
Procedure, shortened: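 Transplantable tumour in mice; compound vs vehicle dosing; survival scored; ratio of treated to control reported.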

[1] = dose: 6.25 mg/kg/injection, schedule: Q01DX009 (ip), vehicle: saline
[2] = dose: 12.5 mg/kg/injection, schedule: Q01DX009 (ip), vehicle: saline
[3] = dose: 25.0 mg/kg/injection, schedule: Q01DX009 (ip), vehicle: saline
[4] = dose: 100.0 mg/kg/injection, schedule: Q04DX003 (ip), vehicle: saline with Tween-80
[5] = dose: 200.0 mg/kg/injection, schedule: Q04DX003 (ip), vehicle: saline with Tween-80
[6] = dose: 400.0 mg/kg/injection, schedule: Q04DX003 (ip), vehicle: saline with Tween-80
[7] = dose: 0.78 mg/kg/injection, schedule: Q01DX009 (ip), vehicle: water
[8] = dose: 1.56 mg/kg/injection, schedule: Q01DX009 (ip), vehicle: water
[9] = dose: 3.12 mg/kg/injection, schedule: Q01DX009 (ip), vehicle: water
[10] = dose: 6.25 mg/kg/injection, schedule: Q01DX009 (ip), vehicle: water
[11] = dose: 50.0 mg/kg/injection, schedule: Q01DX009 (ip), vehicle: saline with Tween-80
[12] = dose: 100.0 mg/kg/injection, schedule: Q01DX009 (ip), vehicle: saline with Tween-80
[13] = dose: 200.0 mg/kg/injection, schedule: Q01DX009 (ip), vehicle: saline with Tween-80

## CNC1C(O)C(NC)C2OC3(O)C(=O)CC(C)OC3OC2C1O (stereo unspecified)
[1]
  T/C: 112 % of control
[2]
  T/C: 106 % of control
[3]
  T/C: 97 % of control
dose: 50.0 mg/kg/injection, schedule: Q01DX009 (ip), vehicle: saline
  T/C: 106 % of control

## CCOC(=O)c1c(C(=O)OCC)c(C)n(NC(=S)NC)c1C
dose: 75.0 mg/kg/injection, schedule: Q01DX009 (ip), vehicle: saline with Tween-80
  T/C: 103 % of control
dose: 150.0 mg/kg/injection, schedule: Q01DX009 (ip), vehicle: saline with Tween-80
  T/C: 89 % of control
dose: 300.0 mg/kg/injection, schedule: Q01DX009 (ip), vehicle: saline with Tween-80
  T/C: 93 % of control

## CC1C(=O)CCC2(C)C1CCC1C3CCC(O)C3(C)CCC12 (stereo unspecified)
[4]
  T/C: 95 % of control
[5]
  T/C: 100 % of control
[6]
  T/C: 91 % of control

## COc1ccc(C=Nc2c(N)[nH]c(=S)[nH]c2=O)cc1
dose: 100.0 mg/kg/injection, schedule: Q04DX002 (ip), vehicle: saline with Tween-80
  T/C: 115 % of control and 117 % of control
dose: 200.0 mg/kg/injection, schedule: Q04DX002 (ip), vehicle: saline with Tween-80
  T/C: 105 % of control and 117 % of control

## C1CCN[N-]C1.C1CCN[N-]C1.[Cl][Pt+2]([Cl])([Cl])[Cl]
[7]
  T/C: 103 % of control
[8]
  T/C: 112 % of control
[9]
  T/C: 120 % of control
[10]
  T/C: 106 % of control and 111 % of control
dose: 25.0 mg/kg/injection, schedule: Q04DX003 (ip), vehicle: water
  T/C: 104 % of control
dose: 50.0 mg/kg/injection, schedule: Q04DX003 (ip), vehicle: water
  T/C: 95 % of control

## O=C(O)c1ccc(C(=O)O)c2c(C(=O)O)ccc(C(=O)O)c12
dose: 50.0 mg/kg/injection, schedule: Q04DX003 (ip), vehicle: saline with Tween-80
  T/C: 95 % of control
[4]
  T/C: 95 % of control
[5]
  T/C: 90 % of control

## CC(=O)OCC1OC(N)C(OC(C)=O)C(OC(C)=O)C1OC(C)=O (stereo unspecified)
[11]
  T/C: 97 % of control
[12]
  T/C: 92 % of control
[13]
  T/C: 96 % of control

## COc1cc([N+](=O)[O-])cc(C=O)c1OC(=O)c1ccccc1
[11]
  T/C: 109 % of control
[12]
  T/C: 123 % of control

## COC(=O)c1cc(=O)nc(N/N=C/c2ccccc2)s1
dose: 50.0 mg/kg/injection, schedule: Q01DX005 (ip), vehicle: saline with Tween-80
  T/C: 109 % of control
dose: 100.0 mg/kg/injection, schedule: Q01DX005 (ip), vehicle: saline with Tween-80
  T/C: 110 % of control
dose: 200.0 mg/kg/injection, schedule: Q01DX005 (ip), vehicle: saline with Tween-80
  T/C: 109 % of control

## [O-][n+]1c(/C=C/c2cccc3ccccc23)cccc1/C=C/c1cccc2ccccc12
dose: 50.0 mg/kg/injection, schedule: Q01DX005 (ip), vehicle: saline + Tween-80 + alcohol
  T/C: 94 % of control
dose: 100.0 mg/kg/injection, schedule: Q01DX005 (ip), vehicle: saline + Tween-80 + alcohol
  T/C: 96 % of control
dose: 200.0 mg/kg/injection, schedule: Q01DX005 (ip), vehicle: saline + Tween-80 + alcohol
  T/C: 96 % of control

## c1ccc(C[n+]2ccc3ccccc3c2)cc1
[1]
  T/C: 100 % of control
[2]
  T/C: 90 % of control
dose: 12.5 mg/kg/injection, schedule: Q04DX003 (ip), vehicle: saline
  T/C: 95 % of control
[3]
  T/C: 118 % of control
dose: 25.0 mg/kg/injection, schedule: Q04DX003 (ip), vehicle: saline
  T/C: 100 % of control

## S=c1nc[nH]c2c1ncn2C1CCCO1 (stereo unspecified)
[11]
  T/C: 95 % of control
[12]
  T/C: 118 % of control

## CC(C)(C)CC(C)(C)c1ccc(OCCOS(=O)(=O)c2cccc([N+](=O)[O-])c2)cc1
[11]
  T/C: 109 % of control
[12]
  T/C: 95 % of control
[13]
  T/C: 118 % of control

## CCCCCCCCCCC(=O)CCCCCC
dose: 100.0 mg/kg/injection, schedule: Q04DX003 (ip), vehicle: other
  T/C: 104 % of control
dose: 200.0 mg/kg/injection, schedule: Q04DX003 (ip), vehicle: other
  T/C: 122 % of control
dose: 400.0 mg/kg/injection, schedule: Q04DX003 (ip), vehicle: other
  T/C: 109 % of control

## O=C1NC(=O)C2(CCCCC2)N1
dose: 25.0 mg/kg/injection, schedule: Q01DX009 (ip), vehicle: Klucel (hydroxypropylcellulose) (HPC)
  T/C: 91 % of control
dose: 25.0 mg/kg/injection, schedule: Q04DX003 (ip), vehicle: Klucel (hydroxypropylcellulose) (HPC)
  T/C: 90 % of control
dose: 50.0 mg/kg/injection, schedule: Q01DX009 (ip), vehicle: Klucel (hydroxypropylcellulose) (HPC)
  T/C: 100 % of control
dose: 50.0 mg/kg/injection, schedule: Q04DX003 (ip), vehicle: Klucel (hydroxypropylcellulose) (HPC)
  T/C: 100 % of control
dose: 100.0 mg/kg/injection, schedule: Q04DX003 (ip), vehicle: Klucel (hydroxypropylcellulose) (HPC)
  T/C: 104 % of control

## COc1cc([C@@H]2c3cc4c(cc3[C@H](OC3OC5COC(c6ccccc6)OC5C(O)C3O)[C@H]3COC(=O)[C@H]23)OCO4)cc(OC)c1OC (stereo partly specified)
dose: 3.1 mg/kg/injection, schedule: Q01DX010 (ip), vehicle: carboxymethylcellulose (CMC)
  T/C: 180 % of control
dose: 6.2 mg/kg/injection, schedule: Q01DX010 (ip), vehicle: carboxymethylcellulose (CMC)
  T/C: 210 % of control
dose: 12.5 mg/kg/injection, schedule: Q01DX010 (ip), vehicle: carboxymethylcellulose (CMC)
  T/C: 235 % of control
dose: 25.0 mg/kg/injection, schedule: Q01DX010 (ip), vehicle: carboxymethylcellulose (CMC)
  T/C: 270 % of control
dose: 50.0 mg/kg/injection, schedule: Q01DX010 (ip), vehicle: carboxymethylcellulose (CMC)
  T/C: 300 % of control

## CC(=O)[C@@]1(O)CC[C@H]2[C@@H]3C[C@H](C)C4=CC(=O)C=C[C@]4(C)[C@@]3(F)[C@@H](O)C[C@@]21C
dose: 5.0 mg/kg/injection, schedule: Q01DX010 (sc), vehicle: steriod suspending solution
  T/C: 109 % of control
dose: 10.0 mg/kg/injection, schedule: Q01DX010 (sc), vehicle: steriod suspending solution
  T/C: 109 % of control
dose: 20.0 mg/kg/injection, schedule: Q01DX010 (sc), vehicle: steriod suspending solution
  T/C: 118 % of control
dose: 80.0 mg/kg/injection, schedule: Q01DX010 (sc), vehicle: steriod suspending solution
  T/C: 118 % of control
dose: 320.0 mg/kg/injection, schedule: Q01DX010 (sc), vehicle: steriod suspending solution
  T/C: 95 % of control and 112 % of control
dose: 640.0 mg/kg/injection, schedule: Q01DX010 (sc), vehicle: steriod suspending solution
  T/C: 112 % of control

## O=C(Cn1ccc(=O)[nH]c1=O)c1cccs1
[12]
  T/C: 90 % of control
[4]
  T/C: 100 % of control
[13]
  T/C: 86 % of control
[5]
  T/C: 95 % of control
dose: 400.0 mg/kg/injection, schedule: Q01DX009 (ip), vehicle: saline with Tween-80
  T/C: 100 % of control
[6]
  T/C: 95 % of control

## CCCCCCCC(=O)N/N=C(\CO)[C@]1(O)Cc2c(O)c3c(c(O)c2[C@@H](OC2CC(N)C(O)C(C)O2)C1)C(=O)c1c(OC)cccc1C3=O (stereo partly specified)
[7]
  T/C: 114 % of control
[8]
  T/C: 183 % of control
[9]
  T/C: 106 % of control and 222 % of control
[10]
  T/C: 163 % of control and 200 % of control
dose: 12.5 mg/kg/injection, schedule: Q01DX009 (ip), vehicle: water
  T/C: 117 % of control and 204 % of control
dose: 25.0 mg/kg/injection, schedule: Q01DX009 (ip), vehicle: water
  T/C: 104 % of control

## c1cc2c3c(cccc3c1)N1C(=N2)Sc2nc3ccccc3nc21
[11]
  T/C: 89 % of control
[12]
  T/C: 89 % of control
[13]
  T/C: 95 % of control
